From ChEMBL document CHEMBL1201862, “PubChem BioAssay data set” (2004)
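96-well plates; 48 h exposure; 5 concentrations. Endpoints by linear interpolation between flanking doses. Not reached: highest tested concentration assigned. Abbreviation: GI50, concentration required for 50% inhibition of growth.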 Activity calls are given as the source filed them. Rule as the data show it: active = GI50 up to about 1.1 µM and inactive = higher.

Assays:
Assay in all cases: NCI anticancer screen, dose series, 48 h
786-0 = tested on: 786-0
A549 = tested on: A549
ACHN = tested on: ACHN
CCRF-CEM = tested on: CCRF-CEM
COLO 205 = tested on: COLO 205
DLD-1 = tested on: DLD-1
DMS-273 = tested on: DMS-273
EKVX = tested on: EKVX
HCC 2998 = tested on: HCC 2998
HCT-15 = tested on: HCT-15
HL-60 = tested on: HL-60
HOP-62 = tested on: HOP-62
HT-29 = tested on: HT-29
IGROV-1 = tested on: IGROV-1
K562 = tested on: K562
KM12 = tested on: KM12
LOX IMVI = tested on: LOX IMVI
LXFL 529 = tested on: LXFL 529
M14 = tested on: M14
M19-MEL = tested on: M19-MEL
MOLT-4 = tested on: MOLT-4
Malme-3M = tested on: Malme-3M
NCI-H23 = tested on: NCI-H23
NCI-H460 = tested on: NCI-H460
NCI-H522 = tested on: NCI-H522
OVCAR-8 = tested on: OVCAR-8
RPMI-8226 = tested on: RPMI-8226
SF-539 = tested on: SF-539
SK-MEL-28 = tested on: SK-MEL-28
SK-OV-3 = tested on: SK-OV-3
SN12C = tested on: SN12C
SNB-19 = tested on: SNB-19
SNB-78 = tested on: SNB-78
SR = tested on: SR
SW-620 = tested on: SW-620
TK-10 = tested on: TK-10
U-251 = tested on: U-251
UACC-257 = tested on: UACC-257
UACC-62 = tested on: UACC-62
UO-31 = tested on: UO-31
A498 = tested on: A498
BT-549 = tested on: BT-549
CAKI-1 = tested on: CAKI-1
DU-145 = tested on: DU-145
HCT-116 = tested on: HCT-116
HOP-92 = tested on: HOP-92
Hs-578T = tested on: Hs-578T
MCF7 = tested on: MCF7
MDA-MB-231 = tested on: MDA-MB-231
MDA-MB-435 = tested on: MDA-MB-435
MDA-N = tested on: MDA-N
NCI-H226 = tested on: NCI-H226
NCI/ADR-RES = tested on: NCI/ADR-RES
OVCAR-3 = tested on: OVCAR-3
OVCAR-4 = tested on: OVCAR-4
OVCAR-5 = tested on: OVCAR-5
PC-3 = tested on: PC-3
RXF 393 = tested on: RXF 393
SF-268 = tested on: SF-268
SF-295 = tested on: SF-295
SK-MEL-2 = tested on: SK-MEL-2
SK-MEL-5 = tested on: SK-MEL-5
SNB-75 = tested on: SNB-75
T47D = tested on: T47D

With CN(C)c1cccc(-c2cc(O)c3ccccc3n2)c1 the GI50 (786-0) was 49700 nM (inactive), the GI50 (A549) was 57300 nM (inactive) and the GI50 (ACHN) was > 100000 nM (inactive). The GI50 (CCRF-CEM) was 41700 nM (inactive), the GI50 (COLO 205) was 48200 nM (inactive) and the GI50 (DLD-1) was 26800 nM (inactive). For the same molecule, the GI50 (DMS-273) was 45900 nM (inactive), the GI50 (EKVX) was > 100000 nM (inactive) and the GI50 (HCC 2998) was 40400 nM (inactive). The GI50 (HCT-15) was 44400 nM, the GI50 (HL-60) was 28200 nM (inactive) and the GI50 (HOP-62) was 53700 nM (inactive). The GI50 (HT-29) was 25200 nM (inactive), the GI50 (IGROV-1) was 80900 nM (inactive) and the GI50 (K562) was > 10000 nM (inactive). For the same molecule, the GI50 (KM12) was 34400 nM (inactive), the GI50 (LOX IMVI) was 71400 nM (inactive) and the GI50 (LXFL 529) was 57700 nM (inactive). For the same molecule, the GI50 (M14) was 43300 nM (inactive), the GI50 (M19-MEL) was 76700 nM (inactive) and the GI50 (MOLT-4) was 61500 nM (inactive). The GI50 (Malme-3M) was 31700 nM (inactive), the GI50 (NCI-H23) was 54800 nM (inactive) and the GI50 (NCI-H460) was 13600 nM (inactive). For the same molecule, the GI50 (NCI-H522) was 24200 nM (inactive), the GI50 (OVCAR-8) was 75900 nM (inactive) and the GI50 (RPMI-8226) was 34800 nM (inactive). The GI50 (SF-539) was 30400 nM (inactive), the GI50 (SK-MEL-28) was 86100 nM (inactive) and the GI50 (SK-OV-3) was 68100 nM (inactive). The GI50 (SN12C) was 47800 nM (inactive), the GI50 (SNB-19) was 39000 nM (inactive) and the GI50 (SNB-78) was 82000 nM (inactive). For the same molecule, the GI50 (SR) was 45500 nM (inactive), the GI50 (SW-620) was 37000 nM (inactive) and the GI50 (TK-10) was > 100000 nM (inactive). The GI50 (U-251) was 55800 nM (inactive), the GI50 (UACC-257) was 31900 nM (inactive) and the GI50 (UACC-62) was 42000 nM (inactive). The GI50 (UO-31) was 47600 nM (inactive).

For COc1cc(CCNC2=CC(=O)c3cccnc3C2=O)ccc1O, the GI50 (786-0) was 1370 nM (inactive), the GI50 (A498) was 2600 nM (inactive) and the GI50 (A549) was 1560 nM (inactive). The GI50 (ACHN) was 1310 nM (inactive), the GI50 (BT-549) was 1370 nM (inactive) and the GI50 (CAKI-1) was 1390 nM (inactive). For the same molecule, the GI50 (CCRF-CEM) was 3640 nM (inactive), the GI50 (COLO 205) was 1600 nM (inactive) and the GI50 (DU-145) was 1720 nM (inactive). The GI50 (EKVX) was 3080 nM (inactive), the GI50 (HCC 2998) was 1730 nM (inactive) and the GI50 (HCT-116) was 1840 nM (inactive). For the same molecule, the GI50 (HCT-15) was 1180 nM, the GI50 (HL-60) was 2500 nM (inactive) and the GI50 (HOP-62) was 1320 nM (inactive). The GI50 (HOP-92) was 5480 nM (inactive), the GI50 (HT-29) was 1970 nM (inactive) and the GI50 (Hs-578T) was 849 nM (active). The GI50 (IGROV-1) was 1440 nM (inactive), the GI50 (K562) was 483 nM (active) and the GI50 (KM12) was 1950 nM (inactive). For the same molecule, the GI50 (LOX IMVI) was 284 nM (active), the GI50 (M14) was 1490 nM (inactive) and the GI50 (MCF7) was 160 nM (active). For the same molecule, the GI50 (MDA-MB-231) was 736 nM (active), the GI50 (MDA-MB-435) was 173 nM (active) and the GI50 (MDA-N) was 167 nM (active). The GI50 (MOLT-4) was 4090 nM (inactive), the GI50 (Malme-3M) was 1100 nM (active) and the GI50 (NCI-H226) was 1840 nM (inactive). For the same molecule, the GI50 (NCI-H23) was 809 nM (active), the GI50 (NCI-H460) was 1090 nM (active) and the GI50 (NCI-H522) was 721 nM (active). The GI50 (NCI/ADR-RES) was 2550 nM (inactive), the GI50 (OVCAR-3) was 2040 nM (inactive) and the GI50 (OVCAR-4) was 1920 nM (inactive). The GI50 (OVCAR-5) was 1630 nM (inactive), the GI50 (OVCAR-8) was 2260 nM (inactive) and the GI50 (PC-3) was 2760 nM (inactive). For the same molecule, the GI50 (RPMI-8226) was 1920 nM (inactive), the GI50 (RXF 393) was 955 nM (active) and the GI50 (SF-268) was 2070 nM (inactive). For the same molecule, the GI50 (SF-295) was 1320 nM (inactive), the GI50 (SF-539) was 1590 nM (inactive) and the GI50 (SK-MEL-28) was 1220 nM (inactive). The GI50 (SK-MEL-2) was 1350 nM (inactive), the GI50 (SK-MEL-5) was 385 nM (active) and the GI50 (SK-OV-3) was 2520 nM (inactive). The GI50 (SN12C) was 944 nM (active), the GI50 (SNB-19) was 1610 nM (inactive) and the GI50 (SNB-75) was 830 nM (active). The GI50 (SR) was 1870 nM (inactive), the GI50 (SW-620) was 1400 nM (inactive) and the GI50 (T47D) was 8510 nM (inactive). The GI50 (TK-10) was 7960 nM (inactive), the GI50 (U-251) was 766 nM (active) and the GI50 (UACC-257) was 869 nM (active). For the same molecule, the GI50 (UACC-62) was 957 nM (active) and the GI50 (UO-31) was 916 nM (active).
